The source of these data is ChEMBL document CHEMBL2380213, “Conformational restriction approach to BACE1 inhibitors II: SAR study of the isocytosine derivatives fixed with a cis-cyclopropane ring” (Bioorg Med Chem Lett, 2013).

pIC50: −log10 of the molar value. Bounds are passed on as bounds.

The target in the test is Beta-secretase 1 (Homo sapiens, UniProt P56817). Description: Inhibition of human recombinant BACE1 expressed in Escherichia coli BL21(DE3) using Biotin-XSEVNLDAEFRHDSGC-Eu as substrate after 3 hrs by HTRF assay. In general terms: TR-FRET usually uses a lanthanide donor and a delayed reading to cut background.
Chain of Beta-secretase 1 (P56817 whole entry): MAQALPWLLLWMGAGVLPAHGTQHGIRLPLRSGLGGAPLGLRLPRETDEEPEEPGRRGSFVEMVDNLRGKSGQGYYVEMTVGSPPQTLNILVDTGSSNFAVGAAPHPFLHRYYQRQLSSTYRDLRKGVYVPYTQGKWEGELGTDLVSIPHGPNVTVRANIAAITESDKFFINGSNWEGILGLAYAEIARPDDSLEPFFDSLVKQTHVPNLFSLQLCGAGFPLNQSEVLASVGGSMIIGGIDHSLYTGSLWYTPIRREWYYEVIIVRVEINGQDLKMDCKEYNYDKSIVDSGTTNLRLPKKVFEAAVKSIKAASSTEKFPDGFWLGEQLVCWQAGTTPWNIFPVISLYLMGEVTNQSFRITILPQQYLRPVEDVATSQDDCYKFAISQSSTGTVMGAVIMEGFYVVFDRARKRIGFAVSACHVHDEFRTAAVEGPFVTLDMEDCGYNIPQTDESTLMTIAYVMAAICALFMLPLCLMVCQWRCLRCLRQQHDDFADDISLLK
For orientation: pIC50 means the IC50 on a negative log10 scale, so that one unit is a factor of ten. Take `COc1cncc(-c2cccc([C@@H]3C[C@@H]3c3cc(=O)n(C)c(N)n3)c2)n1`: the pIC50 is 4.07.
Next, `Cn1c(N)nc([C@H]2C[C@H]2c2cccc(Cc3ccccc3)c2)cc1=O`: under 3.70; `COc1cccc(CCc2cccc([C@@H]3C[C@@H]3c3cc(=O)n(C)c(N)n3)c2)c1`: 4.00.
In the case of `Cc1ccc(CCc2cccc([C@@H]3C[C@@H]3c3cc(=O)n(C)c(N)n3)c2)cc1`, the pIC50 is under 3.70.
Next, `Cc1cccc(-c2cccc([C@@H]3C[C@@H]3c3cc(=O)n(C)c(N)n3)c2)c1`: 4.13; `CSc1cccc(-c2cccc([C@@H]3C[C@@H]3c3cc(=O)n(C)c(N)n3)c2)c1`: 4.32; `Cc1cccc(CCc2cccc([C@@H]3C[C@@H]3c3cc(=O)n(C)c(N)n3)c2)c1`: under 3.70.
Next, `CCOc1cccc(-c2cccc([C@@H]3C[C@@H]3c3cc(=O)n(C)c(N)n3)c2)c1`: 4.40; `Cn1c(N)nc([C@H]2C[C@H]2c2cccc(-c3cccc(F)c3)c2)cc1=O`: 4.14.
Next, `CN(C)c1cccc(-c2cccc([C@@H]3C[C@@H]3c3cc(=O)n(C)c(N)n3)c2)c1`: under 3.70; `Cn1c(N)nc([C@H]2C[C@H]2c2cccc(/C=C/c3ccccc3)c2)cc1=O`: under 3.70.
On to `Cn1c(N)nc([C@H]2C[C@H]2c2cccc(CCc3ccccc3)c2)cc1=O`, for which the pIC50 is 4.65.
For `Cn1c(N)nc([C@H]2C[C@H]2c2cccc(-c3cccc(N)c3)c2)cc1=O`, the pIC50 is under 3.70.
On to `Cn1c(N)nc([C@H]2C[C@H]2c2cccc(CCCc3ccccc3)c2)cc1=O`, for which the pIC50 was under 3.70.
Next, `Cc1ccccc1CCc1cccc([C@@H]2C[C@@H]2c2cc(=O)n(C)c(N)n2)c1`: 3.92; `Cn1c(N)nc([C@H]2C[C@H]2c2cccc(C#Cc3ccccc3)c2)cc1=O`: under 3.70.
Next, `COc1ccc(-c2cccc([C@@H]3C[C@@H]3c3cc(=O)n(C)c(N)n3)c2)cc1`: 4.51; `Cn1c(N)nc(CCc2cccc(CCc3ccccc3)c2)cc1=O`: under 3.70.
